In patent EP1633390B1, “STABILIZED PHARMACEUTICAL GLP-1 PEPTIDE COMPOSITIONS” (NOVO NORDISK A/S, priority 2003, dated 2012):

Assay: Thioflavin T-test (ThT-test) of physical stability / fibril formation of the formulations
Assay type: physicochemical
Procedure: Physical stability of the formulations is evaluated by means of the Thioflavin T-test. The physical stability of the different formulations is characterized by their tendency to form fibrils. A method to determine the presence of fibrils is the Thioflavin T-test. The histological thiazole dye Thioflavin T (ThT) is used as an indicator of amyloid fibril formation. The method is based on the fluorescent characteristics of ThT. […] The physical stability of the formulations is evaluated by the ThT-test after storage of the formulation is top filled glass cartridges for various time periods.

## CCCCCCCCCCCCCCCC(=O)N[C@@H](CCC(=O)NCCCC[C@H](NC(=O)[C@H](C)NC(=O)[C@H](C)NC(=O)[C@H](CCC(N)=O)NC(=O)CNC(=O)[C@H](CCC(=O)O)NC(=O)[C@H](CC(C)C)NC(=O)[C@H](Cc1ccc(O)cc1)NC(=O)[C@H](CO)NC(=O)[C@H](CO)NC(=O)[C@@H](NC(=O)[C@H](CC(=O)O)NC(=O)[C@H](CO)NC(=O)[C@@H](NC(=O)[C@H](Cc1ccccc1)NC(=O)[C@@H](NC(=O)CNC(=O)[C@H](CCC(=O)O)NC(=O)[C@H](C)NC(=O)[C@@H](N)Cc1cnc[nH]1)[C@@H](C)O)[C@@H](C)O)C(C)C)C(=O)N[C@@H](CCC(=O)O)C(=O)N[C@@H](Cc1ccccc1)C(=O)N[C@H](C(=O)N[C@@H](C)C(=O)N[C@@H](Cc1c[nH]c2ccccc12)C(=O)N[C@@H](CC(C)C)C(=O)N[C@H](C(=O)N[C@@H](CCCNC(=N)N)C(=O)NCC(=O)N[C@@H](CCCNC(=N)N)C(=O)NCC(=O)O)C(C)C)[C@@H](C)CC)C(=O)O [Compound 1, Arg^34, Lys^26 (N^∈-(γ-Glu(N^α-hexadecanoyl)))-GLP-1 (7-37)]
Compound 1 adjusted to pH 8.0 before freeze drying, after 1 week and 1 months storage at 37°C
  physical stability (change in ThT): an increase in ThT is seen
Compound 1 adjusted to pH 9.5 and 11.5 before freeze drying, after 1 week and 1 months storage at 37°C
  physical stability (change in ThT): no increase in ThT is seen
Formulation manufactured by raising pH above neutral pH (> 8) in the solution containing the drug substance, after 1 month at 37°C
  physical stability (change in ThT): no increase in ThT is seen
